pKd: −log10 of the molar value. Blank lines part the entries; values can stand above or below the compound they belong to.
Key:
[1] = target: T1, GGCX•FIX complex (Homo sapiens, UniProt P38435, K217A/K218A); assay: cryo-EM structure, […] Å; type: binding; conditions: catalytically inactive GGCX double mutant
T1 construct: GGCX co-expressed with full-length FIX in HEK293F cells, cryo-EM in detergent micelle; FIX propeptide and GLA domain (residues 29-92) resolved; WT and K217A/K218A GGCX; with Coagulation factor IX

[2] = target: T2, GGCX^AA•FX complex (Homo sapiens, UniProt P38435, K217A/K218A); assay: cryo-EM structure, […] Å; type: binding; conditions: catalytically inactive GGCX double mutant
T2 construct: GGCX K217A/K218A double mutant in complex with FX, cryo-EM; with Coagulation factor X

[3] = target: T3, GGCX•FIX complex (Homo sapiens, UniProt P38435); assay: cryo-EM structure, […] Å; type: binding
T3 construct: GGCX co-expressed with full-length FIX in HEK293F cells, cryo-EM in detergent micelle; FIX propeptide and GLA domain (residues 29-92) resolved; WT and K217A/K218A GGCX; with Coagulation factor IX

[4] = target: T4, GGCX (Homo sapiens, UniProt P38435); assay: binding assay, method not told in main text (Fig. S9); conditions: homologue not told in main text
T4 construct: Flag-tagged GGCX used in pull-downs
T4 sequence (P38435 2-758): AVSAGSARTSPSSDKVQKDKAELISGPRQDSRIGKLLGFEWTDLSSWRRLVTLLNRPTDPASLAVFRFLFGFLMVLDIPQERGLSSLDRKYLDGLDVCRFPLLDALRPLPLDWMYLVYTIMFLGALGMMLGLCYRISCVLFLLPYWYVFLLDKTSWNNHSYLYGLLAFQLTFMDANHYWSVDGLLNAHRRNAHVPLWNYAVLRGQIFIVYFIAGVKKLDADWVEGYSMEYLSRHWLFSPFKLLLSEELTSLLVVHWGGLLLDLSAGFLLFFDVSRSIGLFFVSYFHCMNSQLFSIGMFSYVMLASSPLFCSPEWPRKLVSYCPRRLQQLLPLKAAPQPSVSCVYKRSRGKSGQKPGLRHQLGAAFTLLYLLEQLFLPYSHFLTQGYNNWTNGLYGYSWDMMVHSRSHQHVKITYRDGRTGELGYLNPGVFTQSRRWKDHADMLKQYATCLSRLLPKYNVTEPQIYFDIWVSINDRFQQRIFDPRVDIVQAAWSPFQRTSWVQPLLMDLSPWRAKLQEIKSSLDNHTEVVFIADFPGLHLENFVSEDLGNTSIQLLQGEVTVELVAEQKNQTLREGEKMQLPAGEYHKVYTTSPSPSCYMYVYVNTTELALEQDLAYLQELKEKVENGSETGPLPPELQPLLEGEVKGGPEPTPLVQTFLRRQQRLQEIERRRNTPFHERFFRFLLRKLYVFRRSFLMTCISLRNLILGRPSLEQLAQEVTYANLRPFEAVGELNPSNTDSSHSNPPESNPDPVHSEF

[5] = target: T4, GGCX; assay: binding assay, method not told in main text (Fig. S8); conditions: form and homologue of vitamin K not told in main text

T3 sequence (P38435 whole entry, the tested form may be a part): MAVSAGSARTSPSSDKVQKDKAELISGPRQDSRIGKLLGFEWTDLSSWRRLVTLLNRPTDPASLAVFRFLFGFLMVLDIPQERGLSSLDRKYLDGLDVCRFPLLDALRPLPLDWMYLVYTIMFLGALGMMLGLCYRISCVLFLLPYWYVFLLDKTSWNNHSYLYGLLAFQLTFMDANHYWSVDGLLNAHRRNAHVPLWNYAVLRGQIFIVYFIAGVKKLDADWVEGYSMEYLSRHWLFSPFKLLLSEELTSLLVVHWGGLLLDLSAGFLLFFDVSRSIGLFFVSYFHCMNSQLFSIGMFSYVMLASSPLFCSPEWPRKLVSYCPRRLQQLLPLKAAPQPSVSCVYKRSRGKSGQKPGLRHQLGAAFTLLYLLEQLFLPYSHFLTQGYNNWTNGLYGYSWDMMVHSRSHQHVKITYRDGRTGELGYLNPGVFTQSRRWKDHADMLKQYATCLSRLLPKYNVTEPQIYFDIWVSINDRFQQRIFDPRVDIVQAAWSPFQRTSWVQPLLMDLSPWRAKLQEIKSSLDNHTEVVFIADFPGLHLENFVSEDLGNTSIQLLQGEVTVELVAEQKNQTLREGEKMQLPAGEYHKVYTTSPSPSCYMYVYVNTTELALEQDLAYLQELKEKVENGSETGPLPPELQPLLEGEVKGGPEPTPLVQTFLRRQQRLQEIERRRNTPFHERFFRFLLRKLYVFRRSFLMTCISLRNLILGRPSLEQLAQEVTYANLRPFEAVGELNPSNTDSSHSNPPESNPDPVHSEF
T3 sequence (P00740 29-461 partner): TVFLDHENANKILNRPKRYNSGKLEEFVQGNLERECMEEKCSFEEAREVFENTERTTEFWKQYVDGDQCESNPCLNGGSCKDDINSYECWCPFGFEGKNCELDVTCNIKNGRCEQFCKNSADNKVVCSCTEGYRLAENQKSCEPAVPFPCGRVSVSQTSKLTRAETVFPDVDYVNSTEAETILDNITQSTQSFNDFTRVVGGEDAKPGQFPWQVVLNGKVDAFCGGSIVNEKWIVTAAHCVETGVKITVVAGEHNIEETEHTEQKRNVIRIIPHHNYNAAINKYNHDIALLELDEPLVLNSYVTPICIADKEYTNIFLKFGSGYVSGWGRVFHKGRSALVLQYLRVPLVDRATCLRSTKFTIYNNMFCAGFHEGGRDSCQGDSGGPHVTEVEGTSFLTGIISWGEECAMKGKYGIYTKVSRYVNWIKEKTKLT
T2 sequence (P38435 whole entry K217A/K218A): as the sequence (P38435 whole entry, the tested form may be a part) above, with K217A, K218A counted along it
T2 sequence (P00742 32-488 partner limits assumed): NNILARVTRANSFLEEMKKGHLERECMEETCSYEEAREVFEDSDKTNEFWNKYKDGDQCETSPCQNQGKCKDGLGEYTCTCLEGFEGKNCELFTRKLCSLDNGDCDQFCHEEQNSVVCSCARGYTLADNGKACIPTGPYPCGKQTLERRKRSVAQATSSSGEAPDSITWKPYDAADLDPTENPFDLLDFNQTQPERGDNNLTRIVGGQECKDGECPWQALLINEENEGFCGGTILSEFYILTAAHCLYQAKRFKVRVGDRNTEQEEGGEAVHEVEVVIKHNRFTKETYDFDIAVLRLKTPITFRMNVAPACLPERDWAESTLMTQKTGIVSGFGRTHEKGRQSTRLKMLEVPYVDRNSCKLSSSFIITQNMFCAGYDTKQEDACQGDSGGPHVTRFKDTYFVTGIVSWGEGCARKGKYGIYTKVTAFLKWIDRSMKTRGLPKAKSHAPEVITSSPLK
T1 sequence (P38435 whole entry K217A/K218A, the tested form may be a part): as the sequence (P38435 whole entry, the tested form may be a part) above, with K217A, K218A counted along it
T1 sequence (P00740 29-461 partner): as the sequence (P00740 29-461 partner) above

Compound: CC(C)=CCC/C(C)=C/CC/C(C)=C/CC/C(C)=C/Cc1c(C)c(O)c2ccccc2c1O [MKH2-4]
cryo-EM structure, 2.59 Å [1]: unambiguous assignment of the bound molecule as MK-4 hydroquinone (MKH2-4)
cryo-EM structure, 2.58 Å [2]: unambiguous assignment of the bound molecule as MK-4 hydroquinone (MKH2-4)
cryo-EM structure, 2.78 Å ([3]; co-purified endogenous vitamin K, MK-4 by LC-MS/MS, ligand modelled by superposition with the K217A/K218A complex): Superimposing GGCX^WT•FIX onto GGCX^AA•FIX facilitated modeling of MKH2-4 into the WT binding pocket

pKd [4]: ~5.09
Compound: VKO

Compound: CC(C)CCC[C@@H](C)[C@H]1CC[C@H]2[C@@H]3CC=C4C[C@@H](O)CC[C@]4(C)[C@H]3CC[C@]12C [cholesterol]
cryo-EM structure, 2.78 Å ([3]; co-purified lipid, which deposited model holds it is not told explicitly): A well-resolved co-purified cholesterol was also observed

pKd [5]: ~6.07
Compound: vitamin K

From publication PMC12589487, “Molecular basis of vitamin K-dependent protein γ-glutamyl carboxylation” (Cell Research, 2025)
